Assay [1] concerns protease activity of human serum. The assay is described as follows: Effect of E64 and CA-074 on the protease activities of human sera with and without treatment by immobilised papain (AFC method). The following applies: two normal human sera; for protease activity of sera after pre-treatment with immobilised papain, effect of inhibitor: pre-treated with immobilised papain; for small proteolytic activity of sera without pre-treatment, effect of inhibitor: without pre-treatment with immobilised papain. Type of assay: biochemical. Here is the method:
FIG. 7 Effect of the inhibitors E64 and CA074 on the activity of purified cathepsin B or the protease activities of sera with and without treatment by immobilised papain. The tests were carried out with the AFC method.
(§1) The measurement of the fluorescence was done with 96-well microtiter plates by means of a fluorescence reader (for measurements with AMC: excitation at 355 nm, fluorescence at 450 nm) (for measurements with AFC: excitation at 400 nm, fluorescence at 508 nm).
(§2) In the AFC-method the assay run for the measurement of the activity was carried out in test samples at 37° C. The content of the test sample was transferred into the microtiter plate just before the measurement of the fluorescence.
The enzymatic activities of cathepsin B in small concentrations were measured of two “normal” human sera with and without pre-treatment with immobilised papain (FIG. 7).

For assay [2], the target named is T1, cathepsin B (Bos taurus, UniProt P07688).
T1 construct: cathepsin B (purified from the bovine spleen, 10 units/ml) was used in the test; from tissue; host or cells: bovine spleen
Description: Inhibition of cathepsin B by cystatin A. Type of assay: biochemical, bovine. The following applies: 700 nM cystatin A; 5 and 10 ng cathepsin B per assay run.
From the text: a1. Introduction: The activity measurement of cathepsin B is based on the cleavage of a dipeptide substrate • Z-Arg-Arg-fluorophore→Z-Arg-Arg+fluorophore (Z=protecting group, Arg=basic amino acid arginine)
as §1, §2
The inhibition of cathepsin B by the known inhibitor cystatin A was tested in vitro with two different cathepsin B concentrations.

Some results are limits rather than exact numbers.

With `CCCNC(=O)[C@H]1O[C@@H]1C(=O)N[C@H](C(=O)N1CCC[C@H]1C(=O)O)[C@@H](C)CC` [CA-074], in assay [1], the “protease activity of sera after pre-treatment with immobilised papain, effect of inhibitor” value is listed as “reduced this activity to the value which was measured in the samples not pre-treated” and the “small proteolytic activity of sera without pre-treatment, effect of inhibitor” value is reported as “inhibited neither”.

With `CC(C)C[C@H](NC(=O)[C@H]1O[C@@H]1C(=O)O)C(=O)NCCCCN=C(N)N` [E64], in assay [1], the “protease activity of sera after pre-treatment with immobilised papain, effect of inhibitor” value was “reduced this activity to the value which was measured in the samples not pre-treated” and the “small proteolytic activity of sera without pre-treatment, effect of inhibitor” value is “inhibited neither”.

B1: cystatin A: known protein inhibitor of cathepsin B (protein, UniProt P01040 1-98, looked up)
Cystatin-A: MIPGGLSEAKPATPEIQEIVDKVKPQLEEKTNETYGKLEAVQYKTQVVAGTNYYIKVRAGDNKYMHLKVFKSLPGQNEDLVLTGYQVDKNKDDELTGF
Consider B1, for which the “inhibition of cathepsin B” value in assay [2] is recorded as over 95%.

The values above are taken from patent US20100267054A1, “Measuring The Activity Of Proteases” (priority 2007, published 2010).
